Patent US20200399262A1, “COMPOUNDS FOR INHIBITING PROTEIN DEGRADATION AND METHODS OF USE THEREOF IN THE TREATMENT OF CANCER” (PI Therapeutics Ltd, priority 2018, published 2020)

How the values were obtained:
Assay type in all cases: cell-based
[1] = test system: SK-MEL-5; experiment: Cell viability panel, CyQUANT Direct; conditions: Homo sapiens, Melanoma, 48 hours, read-out: Compound EC50
Method: (§1) Cell viability panel studies. Cells were diluted in the corresponding ATCC recommended medium and dispensed in a 384-well plate, depending on the cell line used, at a density of 200-6400 cells per well. For each used cell line, the optimal cell density was used. Compound was serially diluted and 8 concentration (0.04-32 μM) were added to the cells for 72 h exposure. At t=end, of ATPlite 1Step™ (PerkinElmer) were used to calculate cell viability. Cell lines marked with asterisk were seeded 24 h prior to treatment in 96-well plates at the density range of 5,000-40,000 cells/well, according to duplication rate, in RPMI 1640 medium containing 10% fetal bovine serum and 2 mM L-glutamine. Compounds were diluted from 10 mM DMSO stock and treatment was applied at the range of 0.04-1 μM. Following incubation at 37° C. for 48 hours with increasing concentrations of the compounds, viability was determined with CyQUANT® Direct Assay Kit (Invitrogen). Output intensities were normalized to values after treatment with DMSO alone, and EC50 values were calculated using the absorbance measurements [time zero, (Tz), growth control, (C), plus the test growth at the four drug concentration levels (Ti)] as follows: [(Ti−Tz)/(C−Tz)]×100 for concentrations for which Ti>/=Tz; [(Ti−Tz)/Tz]×100 for concentrations for which Ti−<Tz.

[2] = test system: MDA-MB-231; experiment: Cell viability panel, CyQUANT Direct; conditions: Homo sapiens, Breast Cancer, 48 hours, read-out: Compound EC50
Method: as §1

[3] = test system: NCI-H322M; experiment: Cell viability panel, CyQUANT Direct; conditions: Homo sapiens, Lung cancer, 48 hours, read-out: Compound EC50
Method: as §1

[4] = test system: MALME-3M; experiment: Cell viability panel, CyQUANT Direct; conditions: Homo sapiens, Melanoma, 48 hours, read-out: Compound EC50
Method: as §1

[5] = test system: SK-MEL-28; experiment: Cell viability panel, CyQUANT Direct; conditions: Homo sapiens, Melanoma, 48 hours, read-out: Compound EC50
Method: as §1

[6] = test system: OVCAR-5; experiment: Cell viability panel, CyQUANT Direct; conditions: Homo sapiens, Ovarian Cancer, 48 hours, read-out: Compound EC50
Method: as §1

[7] = test system: NCI-H522; experiment: Cell viability panel, CyQUANT Direct; conditions: Homo sapiens, Lung Cancer, 48 hours, read-out: Compound EC50
Method: as §1

[8] = test system: UO-31; experiment: Cell viability panel, CyQUANT Direct; conditions: Homo sapiens, Renal cancer, 48 hours, read-out: Compound EC50
Method: as §1

[9] = test system: HT-29; experiment: Cell viability panel, CyQUANT Direct; conditions: Homo sapiens, Colon cancer, 48 hours, read-out: Compound EC50
Method: as §1

[10] = test system: SF-295; experiment: Cell viability panel, CyQUANT Direct; conditions: Homo sapiens, CNS, 48 hours, read-out: Compound EC50
Method: as §1

[11] = test system: TK-10; experiment: Cell viability panel, CyQUANT Direct; conditions: Homo sapiens, Renal cancer, 48 hours, read-out: Compound EC50
Method: as §1

[12] = test system: LOX IMVI; experiment: Cell viability panel, CyQUANT Direct; conditions: Homo sapiens, Melanoma, 48 hours, read-out: Compound EC50
Method: as §1

[13] = test system: KM-12; experiment: Cell viability panel, CyQUANT Direct; conditions: Homo sapiens, KM12, Colon cancer, 48 hours, read-out: Compound EC50
Method: as §1

[14] = test system: UACC-62; experiment: Cell viability panel, CyQUANT Direct; conditions: Homo sapiens, Melanoma, 48 hours, read-out: Compound EC50
Method: as §1

[15] = test system: SN12C; experiment: Cell viability panel, CyQUANT Direct; conditions: Homo sapiens, Renal cancer, 48 hours, read-out: Compound EC50
Method: as §1

[16] = test system: SF-268; experiment: Cell viability panel, CyQUANT Direct; conditions: Homo sapiens, CNS, 48 hours, read-out: Compound EC50
Method: as §1

[17] = test system: NCI-H23; experiment: Cell viability panel, CyQUANT Direct; conditions: Homo sapiens, Lung cancer, 48 hours, read-out: Compound EC50
Method: as §1

[18] = test system: IGR-OV1; experiment: Cell viability panel, CyQUANT Direct; conditions: Homo sapiens, IGROV-1, Ovarian cancer, 48 hours, read-out: Compound EC50
Method: as §1

[19] = test system: SNB-75; experiment: Cell viability panel, CyQUANT Direct; conditions: Homo sapiens, CNS, 48 hours, read-out: Compound EC50
Method: as §1

[20] = test system: HOP-92; experiment: Cell viability panel, CyQUANT Direct; conditions: Homo sapiens, Lung cancer, 48 hours, read-out: Compound EC50
Method: as §1

[21] = test system: SK-MEL-2; experiment: Cell viability panel, CyQUANT Direct; conditions: Homo sapiens, Melanoma, 48 hours, read-out: Compound EC50
Method: as §1

[22] = test system: MDA-MB-468; experiment: Cell viability panel, CyQUANT Direct; conditions: Homo sapiens, Breast cancer, 48 hours, read-out: Compound EC50
Method: as §1

[23] = test system: M14; experiment: Cell viability panel, CyQUANT Direct; conditions: Homo sapiens, Melanoma, 48 hours, read-out: Compound EC50
Method: as §1

[24] = test system: OVCAR-8; experiment: Cell viability panel, CyQUANT Direct; conditions: Homo sapiens, Ovarian Cancer, 48 hours, read-out: Compound EC50
Method: as §1

[25] = test system: MDA-MB-435; experiment: Cell viability panel, CyQUANT Direct; conditions: Homo sapiens, Melanoma, 48 hours, read-out: Compound EC50
Method: as §1

[26] = test system: HCC-2998; experiment: Cell viability panel, CyQUANT Direct; conditions: Homo sapiens, Colon cancer, 48 hours, read-out: Compound EC50
Method: as §1

[27] = test system: HOP-62; experiment: Cell viability panel, CyQUANT Direct; conditions: Homo sapiens, Lung cancer, 48 hours, read-out: Compound EC50
Method: as §1

[28] = test system: EKVX; experiment: Cell viability panel, CyQUANT Direct; conditions: Homo sapiens, Lung cancer, 48 hours, read-out: Compound EC50
Method: as §1

[29] = test system: U251; experiment: Cell viability panel, CyQUANT Direct; conditions: Homo sapiens, U-251, CNS, 48 hours, read-out: Compound EC50
Method: as §1

[30] = test system: EKVX; experiment: NCI60 screen cytotoxicity; conditions: Homo sapiens, Lung cancer, read-out: Compound B1 EC50
[31] = test system: SK-MEL-2; experiment: NCI60 screen cytotoxicity; conditions: Homo sapiens, Melanoma, read-out: Compound B1 EC50
[32] = test system: MDA-MB-231; experiment: NCI60 screen cytotoxicity; conditions: Homo sapiens, Breast cancer, read-out: Compound B1 EC50
[33] = test system: UO-31; experiment: NCI60 screen cytotoxicity; conditions: Homo sapiens, Renal cancer, read-out: Compound B1 EC50
[34] = test system: SF-268; experiment: NCI60 screen cytotoxicity; conditions: Homo sapiens, CNS, read-out: Compound B1 EC50
[35] = test system: HS-578T; experiment: NCI60 screen cytotoxicity; conditions: Homo sapiens, Breast cancer, read-out: Compound B1 EC50
[36] = test system: M14; experiment: NCI60 screen cytotoxicity; conditions: Homo sapiens, Melanoma, read-out: Compound B1 EC50

## CN(C)CCCS(=O)(=O)N1C/C(=C\c2ccc(C#N)cc2)C(=O)/C(=C/c2ccc(C#N)cc2)C1 [Compound AA]
[1]
  EC50: < 300 nM
[2]
  EC50: < 300 nM
[3]
  EC50: 300 to 1000 nM
[4]
  EC50: < 300 nM
[5]
  EC50: < 300 nM
[6]
  EC50: < 300 nM
[7]
  EC50: < 300 nM
[8]
  EC50: 300 to 1000 nM
[9]
  EC50: 300 to 1000 nM
[10]
  EC50: < 300 nM
[11]
  EC50: 300 to 1000 nM
[12]
  EC50: < 300 nM
[13]
  EC50: < 300 nM
[14]
  EC50: < 300 nM
[15]
  EC50: < 300 nM
[16]
  EC50: < 300 nM
[17]
  EC50: 300 to 1000 nM
[18]
  EC50: < 300 nM
[19]
  EC50: 300 to 1000 nM
[20]
  EC50: 300 to 1000 nM
[21]
  EC50: < 300 nM
[22]
  EC50: < 300 nM
[23]
  EC50: < 300 nM
[24]
  EC50: < 300 nM
[25]
  EC50: < 300 nM
[26]
  EC50: 300 to 1000 nM
[27]
  EC50: 300 to 1000 nM
[28]
  EC50: 300 to 1000 nM
[29]
  EC50: < 300 nM

## CN(C)CC(=O)NCC(=O)N1C/C(=C\c2ccc(C#N)cc2)C(=O)/C(=C/c2ccc(C#N)cc2)C1 [Compound B1]
[30]
  EC50: 300 to 1000 nM
[31]
  EC50: < 300 nM
[32]
  EC50: < 300 nM
[33]
  EC50: 300 to 1000 nM
[34]
  EC50: < 300 nM
[35]
  EC50: 300 to 1000 nM
[36]
  EC50: < 300 nM
